From publication PMC12040169 (PLOS Biology, 2025)

Assay: in vitro
Details: human, hela cells, % viability

Q: For `Nc1nnc(SCc2cccc3ccccc23)[nH]1` [CBK264830], which viability at 28.5 h, 10 µM is on record?
A: Its viability at 28.5 h, 10 µM is 103%.

Q: For `Cc1nn(Cc2ccc(F)cc2)c(C)c1NC(=O)c1cnn2c(C(F)(F)F)cc(-c3ccccc3)nc12` [CBK268231], which viability at 28.5 h, 10 µM is on record?
A: Its viability at 28.5 h, 10 µM is 96.7%.

Q: For `O=C(Cn1ncc2ccccc2c1=O)NNC(=S)Nc1ccc2c(c1)OCO2` [CBK268751], which viability at 28.5 h, 10 µM is on record?
A: Its viability at 28.5 h, 10 µM is 100%.

Q: With `O=c1n(Cc2ccncc2)nc(C(F)(F)F)c2cccn12` [CBK283966] as the compound, how does the viability at 28.5 h, 10 µM read?
A: Its viability at 28.5 h, 10 µM is 87%.

Q: For `CN(C)C(CNS(=O)(=O)c1ccc2[nH]c(=O)[nH]c(=O)c2c1)c1ccccc1Cl` (stereo not shown) [CBK286385], which viability at 28.5 h, 10 µM is on record?
A: Its viability at 28.5 h, 10 µM is 86.7%.

Q: For `Cc1ccccc1OCC1CCCN(C(=O)C2CC(=O)OC2(C)C)C1` (stereo not shown) [CBK282062], which viability at 28.5 h, 10 µM is on record?
A: The viability at 28.5 h, 10 µM was 92.7%.

Q: For `CS(=O)(=O)NCC(=O)N1CCC2(CCCCOc3ccccc3C(=O)NCCNC2=O)CC1` [CBK292123], which viability at 28.5 h, 10 µM is on record?
A: The viability at 28.5 h, 10 µM was 112%.

Q: Which viability at 28.5 h, 10 µM does the source give for `Cc1cc(C(F)(F)F)c2c(NCc3ccoc3)n[nH]c2n1` [CBK284698] here?
A: The viability at 28.5 h, 10 µM was 82.9%.

Q: For `O=C(O)CCNS(=O)(=O)c1ccc(Cl)c(Cl)c1` [CBK268815], which viability at 28.5 h, 10 µM is on record?
A: The viability at 28.5 h, 10 µM was 112%.

Q: With `Cn1nc(C(F)(F)F)cc1C1CCCCCN1S(C)(=O)=O` (stereo not shown) [CBK284673] as the compound, how does the viability at 28.5 h, 10 µM read?
A: Its viability at 28.5 h, 10 µM is 101%.

Q: For `Cc1nn(-c2ccccc2)c2c1C(c1cnn(C)c1)SCC(=O)N2` (stereo not shown) [CBK287896], which viability at 28.5 h, 10 µM is on record?
A: The viability at 28.5 h, 10 µM was 114%.

Q: For `O=C(COC(=O)c1ccc2c(c1)C(=O)N(c1cccc(Cl)c1)C2=O)c1ccc(Br)cc1` [CBK262324], which viability at 28.5 h, 10 µM is on record?
A: The viability at 28.5 h, 10 µM was 94%.

Q: Which viability at 28.5 h, 10 µM does the source give for `OCCn1ncc2c(SC3CCCCC3)ncnc21` [CBK269358] here?
A: Its viability at 28.5 h, 10 µM is 87.8%.

Q: For `O=S(=O)(Nc1cccc2nonc12)c1ccccc1Br` [CBK062577], which viability at 28.5 h, 10 µM is on record?
A: The viability at 28.5 h, 10 µM was 102%.

Q: With `CC(=O)c1ccc(NC(=O)Nc2nnc(CCN3CCCC3)s2)cc1` [CBK174990] as the compound, how does the viability at 28.5 h, 10 µM read?
A: The viability at 28.5 h, 10 µM was 92.6%.

Q: For `O=c1c2c(nc(NCCO)n1-c1ccccc1)-c1ccccc1CC21CCCCC1` [CBK262589], which viability at 28.5 h, 10 µM is on record?
A: Its viability at 28.5 h, 10 µM is 96.4%.

Q: Which viability at 28.5 h, 10 µM does the source give for `O=C(c1c[nH]c(C(=O)N2CCN(c3ccccn3)CC2)c1)c1ccc(Cl)cc1Cl` [CBK107419] here?
A: Its viability at 28.5 h, 10 µM is 86.5%.

Q: With `O=[N+]([O-])c1ccccc1S(=O)(=O)Nc1ccc(S(=O)(=O)Nc2ncccn2)cc1` [CBK264768] as the compound, how does the viability at 28.5 h, 10 µM read?
A: The viability at 28.5 h, 10 µM was 109%.

Q: For `O=C1C(=CNCc2ccco2)C(=O)c2ccccc21` [CBK262688], which viability at 28.5 h, 10 µM is on record?
A: The viability at 28.5 h, 10 µM was 115%.

Q: Which viability at 28.5 h, 10 µM does the source give for `CCCS(=O)(=O)N1CCCC(Cc2ccc(F)cc2F)(C(=O)OCC)C1` (stereo not shown) [CBK307221] here?
A: The viability at 28.5 h, 10 µM was 85.5%.

Q: Which viability at 28.5 h, 10 µM does the source give for `Cn1c(CCC(=O)NCC(C)(C)N2CCCCC2)nc2ccccc21` [CBK281877] here?
A: Its viability at 28.5 h, 10 µM is 92.9%.

Q: For `COc1ccc(C(=O)N2CCC(N(C)Cc3ccc(-c4ccc(S(C)(=O)=O)cc4)nc3)CC2)cc1Cl` [CBK165991T], which viability at 28.5 h, 10 µM is on record?
A: Its viability at 28.5 h, 10 µM is 95.8%.

Q: Which viability at 28.5 h, 10 µM does the source give for `Oc1ccc(/C=N/Nc2nnc(-c3ccccc3)c(-c3ccccc3)n2)cc1` [CBK262011] here?
A: Its viability at 28.5 h, 10 µM is 112%.

Q: For `CC(C)Oc1ncccc1OCCO` [CBK001465], which viability at 28.5 h, 10 µM is on record?
A: Its viability at 28.5 h, 10 µM is 112%.

Q: Which viability at 28.5 h, 10 µM does the source give for `O=C1CC(c2cccs2)CC(=O)C1=CNCCN1CCNCC1` (stereo not shown) [CBK264785] here?
A: The viability at 28.5 h, 10 µM was 105%.

Q: Which viability at 28.5 h, 10 µM does the source give for `O=C(COc1ccccc1)N1CCN(Cc2ccccn2)CC1` [CBK073265G] here?
A: Its viability at 28.5 h, 10 µM is 86.1%.

Q: Which viability at 28.5 h, 10 µM does the source give for `COC(=O)c1cc(=O)c2ccccc2o1` [CBK000064] here?
A: Its viability at 28.5 h, 10 µM is 91.8%.

Q: For `Brc1ccc(OCc2ccccc2)c(CNCCN2CCOCC2)c1` [CBK278171C], which viability at 28.5 h, 10 µM is on record?
A: Its viability at 28.5 h, 10 µM is 97%.

Q: With `COC(=O)c1c(NC(=O)CSc2nc[nH]n2)sc2c1CCCC2` [CBK267222] as the compound, how does the viability at 28.5 h, 10 µM read?
A: Its viability at 28.5 h, 10 µM is 81.6%.

Q: For `O=C(CN1C(=O)c2ccccc2S1(=O)=O)Nc1ccccc1-c1ccccc1` [CBK266390], which viability at 28.5 h, 10 µM is on record?
A: Its viability at 28.5 h, 10 µM is 102%.

Q: For `COc1ccc(OC)c(-n2c(=O)[nH]c3ccccc3c2=O)c1` [CBK287825], which viability at 28.5 h, 10 µM is on record?
A: Its viability at 28.5 h, 10 µM is 110%.

Q: Which viability at 28.5 h, 10 µM does the source give for `FC(F)c1cc(-c2ccccc2)n2ncnc2n1` [CBK025714] here?
A: The viability at 28.5 h, 10 µM was 87.3%.

Q: With `CC(N(C)CC(=O)NCc1ccc(OCC(N)=O)cc1)C(C)(C)C` (stereo not shown) [CBK306338] as the compound, how does the viability at 28.5 h, 10 µM read?
A: Its viability at 28.5 h, 10 µM is 99.2%.

Q: With `O=C(Cc1c[nH]c(=O)[nH]c1=O)N1CCCCC1c1nc2cc(F)ccc2[nH]1` (stereo not shown) [CBK291108] as the compound, how does the viability at 28.5 h, 10 µM read?
A: Its viability at 28.5 h, 10 µM is 104%.

Q: With `O=C1N(C2CCCCC2)CC2C(c3ccccc3)ONC12O` (stereo not shown) [CBK021700] as the compound, how does the viability at 28.5 h, 10 µM read?
A: Its viability at 28.5 h, 10 µM is 97%.

Q: Which viability at 28.5 h, 10 µM does the source give for `CC(=O)Nc1ccc([C@@H](O)[C@H]2COCC(=O)N2Cc2ccc(C(F)(F)F)cc2)cc1` [CBK289678] here?
A: Its viability at 28.5 h, 10 µM is 92.7%.

Q: For `COc1cccc(C(=O)NCCC(=O)N2CCc3c(nc[nH]c3=O)C2)c1` [CBK307231], which viability at 28.5 h, 10 µM is on record?
A: Its viability at 28.5 h, 10 µM is 103%.

Q: For `CCC(CNC(=O)c1ccoc1C)N1CCCC1` (stereo not shown) [CBK304798], which viability at 28.5 h, 10 µM is on record?
A: Its viability at 28.5 h, 10 µM is 88.9%.

Q: For `COc1ccc(C(=O)C2=C(O)C(=O)N(CCN3CCNCC3)C2c2ccc(Cl)c(Cl)c2)cc1` (stereo not shown) [CBK264616], which viability at 28.5 h, 10 µM is on record?
A: The viability at 28.5 h, 10 µM was 95.1%.

Q: Which viability at 28.5 h, 10 µM does the source give for `S=c1[nH]nc(Cc2cccc3ccccc23)n1-c1ccccc1` [CBK265052] here?
A: The viability at 28.5 h, 10 µM was 97.3%.

Q: Which viability at 28.5 h, 10 µM does the source give for `CC(C)Cn1c(SCC(=O)N2CCNC2=O)nnc1-c1ccco1` [CBK295175] here?
A: Its viability at 28.5 h, 10 µM is 106%.

Q: For `COCc1nc(C)c(C(=O)NC2CCCN(c3ccn(C)n3)C2=O)s1` (stereo not shown) [CBK306497], which viability at 28.5 h, 10 µM is on record?
A: The viability at 28.5 h, 10 µM was 92.2%.

Q: With `CCN(Cc1ccc(C#N)cc1F)C(=O)C(NC(=O)OC)C(C)C` (stereo not shown) [CBK306372] as the compound, how does the viability at 28.5 h, 10 µM read?
A: Its viability at 28.5 h, 10 µM is 86.2%.
